Experimental data reported in patent US11213033B2, “Method for reusing leaves from arborescent woody plants, for the phytopharmaceutical industry” (CENTRE NATIONAL DE LA RECHERCHE SCIENTIFIQUE—CNRS, priority 2014, dated 2022).

Tests used:
[1] = Sulcotrione photoprotection test (Suntest irradiation, HPLC); format: physicochemical
Experimental: The pesticide used is sulcotrione. It was used in its Mikado commercial formulation. Sulcotrione degrades when irradiated by sunlight. The speed of the photodegradation depends on the environment of the molecule. To be representative of actual usage conditions of the pesticide, the rate of sulcotrione photodegradation is measured with the latter being dry, deposited in crystallizing dishes where the bottom is covered by a film of paraffin wax simulating the thin layer of epicuticular wax covering the surface of plants.
The formulated sulcotrione is deposited alone or in the presence of the compositions, 1 ml per crystallizing dish. The concentration of sulcotrione is fixed at 8 mg/l (100 g/ha) and that of the extracts is adjusted so that the absorbance of the compositions at 300 nm is equal to 4 for a 1 mm path length. The pH of the two compositions is normalized to 4.5 by the addition of sodium hydroxide. The crystallizing dishes are then inserted into a Suntest irradiator delivering a radiation similar in photon distribution and intensity to sunlight when the sun is at zenith in temperate regions, then removed after 3 h and 6 h of irradiation. The crystallizing dishes are rinsed with 2 ml ultrapure water and these solutions are analyzed by HPLC to determine their sulcotrione content.

[2] = tested on: Phytophthora parasitica var. nicotianae (Ppn) isolate 329; test: Curative treatment of tobacco leaf discs against a pathogen: surface area of region of infection; format: in vivo; conditions: 50 μl composition (1% extract), 100 μl zoospore suspension, three days after the infiltrations
Experimental: Identical compositions are used, as well as leaves originating from the same tobacco plants as in Example 2. Two discs ([…]) are cut from a single leaf and then placed in a Petri dish containing a layer of 2% agarose gel.
The pathogen selected for the study is Phytophthora parasitica var. nicotianae (Ppn) isolate 329. The Ppn is grown on Malt Agar at 24° C. For the production of zoospores, the Ppn mycelium is grown for a week in V8 liquid medium at 24° C. under continuous light conditions, macerated, and then incubated for four days in water containing 2% agar. The zoospores are released by means of thermal shock consisting of two incubations, a first at 4° C. for 20 min, a second at 37° C. for 30 min after addition of 10 ml water. A zoospore suspension in water (1 zoospore per microliter) is prepared before being inoculated.
The compositions containing the extracts (50 μl) are infiltrated and the zoospore suspensions (100 μl) are inoculated into two separate regions, 1 cm apart, of the tobacco leaf parenchyma. Assays in which the compositions are replaced with salicylic acid (positive control) or ultrapure water (negative control) are performed. Three days after the infiltrations, the surface area of the region of infection is measured. The measurements are made using the Optima and Photoshop software for Windows.

Row | Structure (SMILES) | sulcotrione disappearance after 3 hours of irradiation ([1]; Suntest, 3 h) [%] | sulcotrione disappearance (loss) after 6 hours of irradiation ([1]; Suntest, 6 h) | Sulcotrione content after 3 h irradiation ([1]; sulcotrione 8 mg/l, dry deposit on paraffin wax film, Suntest, 3 h) | Sulcotrione content after 6 h irradiation ([1]; sulcotrione 8 mg/l, dry deposit on paraffin wax film, Suntest, 6 h) | Initial sulcotrione content ([1]; sulcotrione 8 mg/l, dry deposit on paraffin wax film, before irradiation) | Surface area of region of infection [2] [cm^2]
1 | CS(=O)(=O)c1ccc(C(=O)C2C(=O)CCCC2=O)c(Cl)c1 [Sulcotrione alone, sulcotrione] | 65 | about 75% | 135 000 U.A. | 91 000 U.A. | 390 000 U.A. | 
2 | O=C(O)c1ccccc1O [Salicylic acid, salicylic acid] |  |  |  |  |  | 10.9 ± 2.8
